Key:
APE1 redox activity = details: cell-based studies; ref [15], [17], [21], [23], [48]; cited from earlier work
APE1^ΔN38 = APE1^ΔN38 (Homo sapiens, UniProt P27695); experiment: NMR chemical shift perturbation titration; format: binding
p50 (NF-kB subunit) = p50 (NF-kB subunit) (human, UniProt P19838 42-367); experiment: EMSA
Chain of p50 (NF-kB subunit) (P19838 42-367): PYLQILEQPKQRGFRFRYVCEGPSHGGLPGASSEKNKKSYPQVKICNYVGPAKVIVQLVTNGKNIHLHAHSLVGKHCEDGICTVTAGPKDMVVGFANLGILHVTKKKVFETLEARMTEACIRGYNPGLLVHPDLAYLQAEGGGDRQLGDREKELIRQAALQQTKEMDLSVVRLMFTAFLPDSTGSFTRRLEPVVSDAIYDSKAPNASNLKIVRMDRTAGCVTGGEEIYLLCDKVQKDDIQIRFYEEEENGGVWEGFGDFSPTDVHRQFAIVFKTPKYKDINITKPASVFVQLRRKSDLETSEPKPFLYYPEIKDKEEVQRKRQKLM

Chain of APE1^ΔN38 (P27695 39-318): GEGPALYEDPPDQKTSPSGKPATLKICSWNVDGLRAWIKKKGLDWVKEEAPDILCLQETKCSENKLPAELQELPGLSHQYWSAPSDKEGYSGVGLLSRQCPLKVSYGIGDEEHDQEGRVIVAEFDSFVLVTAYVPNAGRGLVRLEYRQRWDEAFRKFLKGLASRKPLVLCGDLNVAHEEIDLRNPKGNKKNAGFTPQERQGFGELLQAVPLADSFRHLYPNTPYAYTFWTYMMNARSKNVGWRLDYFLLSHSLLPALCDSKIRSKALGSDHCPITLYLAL

## CCCCCCCCC/C(=C\C1=C(C)C(=O)C(OC)=C(OC)C1=O)C(=O)O [E3330, (E)-3-[2-(5,6-dimethoxy-3-methyl-1,4-benzoquinonyl)]-2-nonylpropenoic acid]
APE1 redox activity
  E3330 concentrations at which observed effects occur: 5 to 50 µM

## C/C(=C\C1=C(Cl)C(=O)c2ccccc2C1=O)C(=O)O [RN7-60, (E)-3-(3-chloro-1,4-naphthoquinon-2-yl)-2-methylpropenoic acid]
APE1^ΔN38
  Kd: 264 ± 72 µM
APE1^ΔN38; NMR conditions including 0.5 mM DTT
  covalent modification of Cys residues: no evidence for covalent modification of any Cys residue
APE1^ΔN38; similar conditions
  fold tighter affinity of RN7-60 than E3330: about 2 fold

B1: p50 DNA (dsDNA)
DNA 1: AAGGGACTTTCCGCTGGGGATTCCAT
DNA 2: ATGGAATCCCCAGCGGAAAGTCCCTT
modifications: 3'-terminal T of strand 1 is fluorescein-dT (printed as Y)
p50 (NF-kB subunit)
  binding result: binds

— PMC3226889 (Biochemistry, 2011)
